This note sets out measurements from ChEMBL document CHEMBL3769305, “Glucose-functionalized amino-OPEs as biocompatible photosensitizers in PDT” (Eur J Med Chem, 2016).

The series is described as follows: Induction of singlet-oxygen generation at 5 x 10^-5 M irradiated at 390 nm by uric acid degradation assay. It is filed as physicochemical. As to conditions: 0.39 µM; call rule not given here.

With `COc1cc(C#Cc2ccc(C#CCO[C@@H]3O[C@H](CO)[C@@H](O)[C@H](O)[C@H]3O)cc2N(C)C)c(OC)cc1C#Cc1ccc(C#CCO[C@@H]2O[C@H](CO)[C@@H](O)[C@H](O)[C@H]2O)cc1N(C)C`, the outcome was Active.
